Laboratory results reported in patent US12668584B2, “Heterocyclic compounds as kinase inhibitors for therapeutic uses” (National Health Research Institutes, priority 2019, dated 2026).

Columns and labels:
[1] = molecular target: T1, CSF1R kinase (recombinant N-terminal GST-CSF1R, residues L534-C972) (Homo sapiens, UniProt P07333); assay: CSF1R Kinase-Glo assay; assay type: biochemical; settings: 40 μM ATP, 30° C. 180 min, read-out: Enzymatic Assay CSF1R enzyme IC50
T1 construct: Recombinant N-terminal GST-CSF1R (CSF1R residues L534-C972) containing the CSFIR kinase domain; made in house; host or cells: Sf9 insect cells
T1 sequence (P07333 534-972): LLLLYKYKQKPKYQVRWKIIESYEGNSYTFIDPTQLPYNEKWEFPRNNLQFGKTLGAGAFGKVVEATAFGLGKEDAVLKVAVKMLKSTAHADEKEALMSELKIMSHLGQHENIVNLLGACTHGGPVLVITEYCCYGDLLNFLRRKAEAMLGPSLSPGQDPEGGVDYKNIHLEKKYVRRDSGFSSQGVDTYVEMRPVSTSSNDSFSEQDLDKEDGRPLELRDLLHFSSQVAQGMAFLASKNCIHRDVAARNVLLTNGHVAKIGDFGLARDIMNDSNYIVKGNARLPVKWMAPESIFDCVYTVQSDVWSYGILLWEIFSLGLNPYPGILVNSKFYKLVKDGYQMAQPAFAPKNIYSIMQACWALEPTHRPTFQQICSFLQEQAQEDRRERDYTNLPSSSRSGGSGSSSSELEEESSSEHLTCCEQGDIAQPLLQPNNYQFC
Procedure: A study was conducted to test certain compounds described in EXAMPLE 1 in inhibiting CSF1R kinase activity.
Activity of CSF1R kinase was determined using a CSF1R Kinase-Glo assay. Recombinant N-terminal GST-CSF1R (CSF1R residues L534-C972) containing the CSFIR kinase domain was expressed in Sf9 insect cells and purified. The kinase assay was carried out in 96-well plates at 30° C. for 180 min with the tested compounds in a final volume of 50 μl including the following components: 25 mM Tris-HCl pH 7.4, 4 mM MnCl2, 10 mM MgCl2, 0.01% BSA, 0.5 mM NA3VO4, 0.02% Triton X-100, 40 μM ATP, 2 mM DTT and 20 μM poly(Glu,Tyr) 4:1 peptide, and 600 ng recombinant GST-CSF1R. Following incubation, 50 μl Kinase-Glo Plus Reagent (Promega, Madison, WI, USA) was added and the mixture was incubated at 25° C. for 20 min. A 70-μL aliquot of each reaction mixture was transferred to a black microtiter plate and luminescence was measured on Wallac Vector 1420 multilabel counter (PerkinElmer, Shelton, CT, USA). Percentage inhibition values were obtained by comparison of reaction rate with the rates in control wells (i.e., in the absence of test compound). IC50 values were calculated from a series of percentage inhibition values determined at a range of test compound concentrations using GraphPad Prism version 6 software (GraphPad, San Diego, CA, USA).

M-NFS-60 cells = assay: MTS cell viability assay, M-NFS-60; assay type: cell-based; settings: 72 h, read-out: Cellular Proliferation Assay M-NFS-60 (nM) GI50
Procedure: (§1) Studies were conducted to evaluate […] anticancer activity of certain compounds described in EXAMPLE 1 using 3-(4,5-dimethylthiazol-2-yl)-5-(3-carboxymethoxyphenyl)-2-(4-sulfophenyl)-2H-tetrazolium) (MTS) cell viability assays. Results from these studies are shown in Table 2 below (see columns 3 and 4).
(§2) The cell lines M-NFS-60 (ATCC® CRL-1838™) and BaF3-CSF1R-1600 were obtained from American Type Culture Collection (ATCC, Manassas, VA, USA). The stable BaF3-CSF1R-1600 cell line expresses ETV6-CSF1R fusion protein consisting of N-terminal ETS-variant gene 6 protein (ETV6 residues M1-G337) and CSF1R tyrosine kinase (CSF1R residues L533-C972). The M-NSF-60 and BaF3-CSF1R-1600 cells were cultured in RPMI1640 medium supplemented with 10% fetal bovine serum, 0.05 mM 2-ME, 10 U/ml penicillin, and 10 µg/ml streptomycin at 37° C. and 5% CO2.
(§3) M-NFS-60 and BaF3-CSF1R-1600 cells were seeded in 96-well plates at a density of 10000 cells/100 μl and 8000 cells/100 μl per well, respectively, for 16 h and treated with vehicle or various concentrations of test compounds in medium for 72 h. Viable cells were quantified using the MTS method (Promega, Madison, WI, USA) according to manufacturer's recommended protocol. The results were determined by measuring absorbance at 490 nm using a plate reader (Victor 2). The GI50 value was defined as the amount of compound that caused 50% reduction in cell viability in comparison with DMSO-treated (vehicle) control and was calculated using Prism GraphPad Prism version 6 software (GraphPad).

[2] = system: BaF3-CSF1R-1600 cells (express ETV6-CSF1R fusion protein); assay: MTS cell viability assay, BaF3-CSF1R-1600; assay type: cell-based; settings: 72 h, read-out: Cellular Proliferation Assay BaF3-CSF1R GI50
Procedure: as §1, §2, §3

| Compound | IC50 [1] [nM] | GI50 (M-NFS-60 cells) [nM] | GI50 [2] [nM] |
| --- | --- | --- | --- |
| COc1ccc(Cl)cc1NC(=O)Nc1ccc(Oc2ncnc3cc(N(C)C)ccc23)cc1 [Compound 104] | 20 to 100 | 100 to 1000 | 20 to 100 |
| COc1ccc(NC(=O)Nc2ccc(Oc3ncnc4cc(N(C)C)ccc34)cc2)cc1Cl [Compound 105] | 20 to 100 | 20 to 100 | 20 to 100 |
| CN(C)c1ccc2c(Oc3ccc(NC(=O)Nc4ccc(F)cc4)cc3)ncnc2c1 [Compound 106] | < 20 | 100 to 1000 | > 1000 |
| COCCN1CCN(c2ccc3c(Oc4ccc(NC(=O)NCc5ccc(C(F)(F)F)nc5)cc4)ncnc3c2)CC1 [Compound 108] | 20 to 100 | 20 to 100 | 20 to 100 |
